Laboratory results from US20200181104A1, “SSAO INHIBITORS AND USES THEREOF” (METACRINE, INC., priority 2018, published 2020).

Molecular target: T1, Recombinant Human SSAO/VAP-1/AOC3 (Homo sapiens, UniProt Q16853)
T1 construct: purchased R&D systems 3957-AO
T1 sequence (Q16853 1-763): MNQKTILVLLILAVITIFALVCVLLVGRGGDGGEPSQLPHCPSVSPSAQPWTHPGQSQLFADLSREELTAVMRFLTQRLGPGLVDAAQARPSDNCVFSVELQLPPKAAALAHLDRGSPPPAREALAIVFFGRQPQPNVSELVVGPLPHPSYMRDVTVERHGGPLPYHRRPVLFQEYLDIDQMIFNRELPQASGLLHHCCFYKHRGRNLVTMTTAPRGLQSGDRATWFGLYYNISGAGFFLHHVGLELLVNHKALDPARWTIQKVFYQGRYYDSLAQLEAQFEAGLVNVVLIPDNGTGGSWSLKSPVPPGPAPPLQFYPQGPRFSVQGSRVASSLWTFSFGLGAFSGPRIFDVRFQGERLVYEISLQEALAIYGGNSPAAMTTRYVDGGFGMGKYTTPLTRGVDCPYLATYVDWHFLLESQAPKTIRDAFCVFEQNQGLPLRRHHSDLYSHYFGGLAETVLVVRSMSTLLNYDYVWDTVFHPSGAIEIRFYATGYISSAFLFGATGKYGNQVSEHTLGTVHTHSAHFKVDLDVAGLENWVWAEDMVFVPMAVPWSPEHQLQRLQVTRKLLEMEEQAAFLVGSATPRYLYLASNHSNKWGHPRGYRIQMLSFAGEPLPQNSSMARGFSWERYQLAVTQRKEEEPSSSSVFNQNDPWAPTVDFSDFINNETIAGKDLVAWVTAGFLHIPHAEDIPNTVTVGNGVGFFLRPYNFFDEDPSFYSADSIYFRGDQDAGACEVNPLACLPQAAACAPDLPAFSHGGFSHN
Assay: Human Semicarbazide-Sensitive Amine Oxidase (SSAO) Assay
Type: biochemical
Settings: recombinant enzyme, 30 minutes preincubation at 37° C., benzylamine substrate, Amplex Ultra Red/HRP fluorescence
Description: Compounds were dissolved in DMSO to provide a Concentration Response Curve (CRC; at 500 times the final concentration) over a range of 6-10 dilutions.
Recombinant Human SSAO/VAP-1/AOC3 (R&D systems; Catalog #3957-AO) was used to screen compound potency in vitro, according to previously described methods (J Pharmacol Exp Ther. 2013 November; 347(2):365-74). SSAO enzyme was suspended in 50 mM HEPES buffer to a working concentration of 2.5 μg/ml and 40 μL of this enzyme mixture was then added to each well of a F16 Black Maxisorp 96 well Plate (Nunc, Catalog #475515). Ten microliters of each test compound (at 5 times the final concentration) were added to each well, resulting in a final well volume of 50 μL of the enzyme and inhibitor mixture. The compounds were preincubated with the enzyme for 30 minutes at 37° C., prior to the addition of a 40 μL volume of Amplex Ultra Red (125 uM AUR; Molecular Probes, Catalog # A36006)/Horseradish peroxidase (2.5 U/ml HRP; Sigma-Aldrich Catalog # P8375) oxidase detection reagent containing cytochrome C ([…]; Sigma-Aldrich Catalog # C7752). Cytochrome C was included in the AUR/HRP detection mixture to reduce the background fluorescence that can occur via the spontaneous redox reaction between AUR and HRP. The SSAO enzyme reaction was then initiated by adding 10 μL of the SSAO substrate, benzylamine (Sigma-Aldrich Catalog # B5136), and SSAO activity was measured in kinetic mode over a 30-120 minute sampling period (excit. 544 nm; emit 590 nm; cut off 570 nm; medium gain) to obtain IC50 values for enzyme activity in each treatment well.

SMILES | IC50 [nM]
CN(C(=O)C12CCC(c3ccc(OC/C(=C/F)CN)cc3)(CC1)CC2)C1CCOCC1 [Compound 2.16, (E)-4-(4-((2-(amino-methyl)-3-fluoroallyl)oxy)phenyl)-N-methyl-N-(tetrahydro-2H-pyran-4-yl)bicyclo[2.2.2] octane-1-carboxamide] | ≤ 10
CNC(=O)CCNC(=O)C12CCC(c3ccc(OC/C(=C/F)CN)cc3)(CC1)CC2 [Compound 2.17, (E)-4-(4-((2-(amino-methyl)-3-fluoroallyl)oxy)phenyl)-N-(3-(methylamino)-3-oxopropyl)bicyclo[2.2.2] octane-1-carboxamide] | ≤ 10
C[C@H]1COCCN1C(=O)C12CCC(c3ccc(OC/C(=C/F)CN)cc3)(CC1)CC2 [Compound 2.22, (S,E)-(4-(4-((2-(aminomethyl)-3-fluoroallyl)oxy)phenyl)bicyclo[2.2.2]octan-1-yl)(3-methylmorpholino) methanone] | ≤ 10
CC(C)NC(=O)C12CCC(c3ccc(OC/C(=C/F)CN)cc3)(CC1)CC2 [Compound 2.23, (E)-4-(4-((2-(aminomethyl)-3-fluoroallyl)oxy)phenyl)-N-isopropylbicyclo [2.2.2]octane-1-carboxamide] | ≤ 10
NC/C(=C\F)COc1ccc(C23CCC(C(=O)N4CCCCC4)(CC2)CC3)cc1 [Compound 2.24, (E)-(4-(4-((2-(amino-methyl)-3-fluoroallyl)oxy)phenyl)bicyclo [2.2.2]octan-1-yl)(piperidin-1-yl)methanone] | ≤ 10
NC/C(=C\F)COc1ccc(C23CCC(C(=O)N4CCCC4)(CC2)CC3)cc1 [Compound 2.25, (E)-(4-(4-((2-(aminomethyl)-3-fluoroallyl)oxy)phenyl)bicyclo [2.2.2]octan-1-yl)(pyrrolidin-1-yl)methanone] | ≤ 10
NC/C(=C\F)COc1ccc(C23CCC(C(=O)NCCCCl)(CC2)CC3)cc1 [Compound 2.26, (E)-4-(4-((2-(aminomethyl)-3-fluoroallyl)oxy)phenyl)-N-(3-chloropropyl)bicyclo[2.2.2] octane-1-carboxamide] | ≤ 10
NC/C(=C\F)COc1ccc(C23CCC(C(=O)N4CC(O)C4)(CC2)CC3)cc1 [Compound 2.29, (E)-(4-(4-((2-(aminomethyl)-3-fluoroallyl)oxy)phenyl)bicyclo [2.2.2]octan-1-yl)(3-hydroxyazetidin-1-yl)methanone] | ≤ 10
NC/C(=C\F)COc1ccc(C23CCC(C(=O)N4CCN(CC(F)(F)F)CC4)(CC2)CC3)cc1 [Compound 2.30, (E)-(4-(4-((2-(aminomethyl)-3-fluoroallyl)oxy)phenyl)bicyclo [2.2.2]octan-1-yl)(4-(2,2,2-trifluoroethyl)piperazin-1-yl)methanone] | ≤ 10
CC(=O)N1CCN(C(=O)C23CCC(c4ccc(OC/C(=C/F)CN)cc4)(CC2)CC3)CC1 [Compound 2.31, (E)-1-(4-(4-(4-((2-(aminomethyl)-3-fluoroallyl)oxy)phenyl)bicyclo [2.2.2]octane-1-carbonyl)piperazin-1-yl)ethanone] | ≤ 10
COCCOCCNC(=O)C12CCC(c3ccc(OC/C(=C/F)CN)cc3)(CC1)CC2 [Compound 2.32, (E)-4-(4-((2-(aminomethyl)-3-fluoroallyl)oxy)phenyl)-N-(2-(2-methoxyethoxy)ethyl) bicyclo[2.2.2]octane-1-carboxamide] | ≤ 10
CC(C)(CO)NC(=O)C12CCC(c3ccc(OC/C(=C/F)CN)cc3)(CC1)CC2 [Compound 2.34, (E)-4-(4-((2-(aminomethyl)-3-fluoroallyl)oxy)phenyl)-N-(1-hydroxy-2-methylpropan-2-yl)bicyclo[2.2.2]octane-1-carboxamide] | ≤ 10
CN(C)C(=O)CCNC(=O)C12CCC(c3ccc(OC/C(=C/F)CN)cc3)(CC1)CC2 [Compound 2.37, (E)-4-(4-((2-(aminomethyl)-3-fluoroallyl)oxy)phenyl)-N-(3-(dimethylamino)-3-oxopropyl)bicyclo[2.2.2]octane-1-carboxamide] | ≤ 10
CC(C)N(CCO)C(=O)C12CCC(c3ccc(OC/C(=C/F)CN)cc3)(CC1)CC2 [Compound 2.38, (E)-4-(4-((2-(aminomethyl)-3-fluoroallyl)oxy)phenyl)-N-(2-hydroxyethyl)-N-isopropylbicyclo[2.2.2]octane-1-carboxamide] | ≤ 10
COC1CN(C(=O)C23CCC(c4ccc(OC/C(=C/F)CN)cc4)(CC2)CC3)C1 [Compound 2.39, (E)-(4-(4-((2-(aminomethyl)-3-fluoroallyl)oxy)phenyl)bicyclo [2.2.2]octan-1-yl)(3-methoxyazetidin-1-yl)methanone] | ≤ 10
NC/C(=C\F)COc1ccc(C23CCC(C(=O)N4CCC4)(CC2)CC3)cc1 [Compound 2.40, (E)-(4-(4-((2-(aminomethyl)-3-fluoroallyl)oxy)phenyl)bicyclo [2.2.2]octan-1-yl)(azetidin-1-yl)methanone] | ≤ 10

Now from value to compound:

IC50 [nM] | SMILES
≤ 10 | CC1(NC(=O)C23CCC(c4ccc(OC/C(=C/F)CN)cc4)(CC2)CC3)CCOCC1 [Compound 2.18, (E)-4-(4-((2-(amino-methyl)-3-fluoroallyl)oxy)phenyl)-N-(4-methyltetrahydro-2H-pyran-4-yl)bicyclo [2.2.2]octane-1-carboxamide]
≤ 10 | CC(NC(=O)C12CCC(c3ccc(OC/C(=C/F)CN)cc3)(CC1)CC2)C1CCOCC1 (centres unmarked) [Compound 2.19, (E)-4-(4-((2-(amino-methyl)-3-fluoroallyl)oxy)phenyl)-N-(1-(tetrahydro-2H-pyran-4-yl)ethyl)bicyclo[2.2.2] octane-1-carboxamide]
≤ 10 | NC/C(=C\F)COc1ccc(C23CCC(C(=O)NCC4CCOCC4)(CC2)CC3)cc1 [Compound 2.20]
≤ 10 | NC/C(=C\F)COc1ccc(C23CCC(C(=O)NC4CCOC4)(CC2)CC3)cc1 (centres unmarked) [Compound 2.21, (E)-4-(4-((2-(amino-methyl)-3-fluoroallyl)oxy)phenyl)-N-(tetrahydrofuran-3-yl)bicyclo[2.2.2]octane-1-carboxamide]
≤ 10 | C[C@H](NC(=O)C12CCC(c3ccc(OC/C(=C/F)CN)cc3)(CC1)CC2)C1CCOCC1 [Compound 2.27, (S,E)-4-(4-((2-(aminomethyl)-3-fluoroallyl)oxy)phenyl)-N-(1-(tetrahydro-2H-pyran-4-yl)ethyl)bicyclo[2.2.2]octane-1-carboxamide]
≤ 10 | C[C@@H](NC(=O)C12CCC(c3ccc(OC/C(=C/F)CN)cc3)(CC1)CC2)C1CCOCC1 [Compound 2.28, (R,E)-4-(4-((2-(aminomethyl)-3-fluoroallyl)oxy)phenyl)-N-(1-(tetrahydro-2H-pyran-4-yl)ethyl)bicyclo[2.2.2]octane-1-carboxamide]
≤ 10 | NC/C(=C\F)COc1ccc(C23CCC(C(=O)NCC4(F)CCOCC4)(CC2)CC3)cc1 [Compound 2.33, (E)-4-(4-((2-(aminomethyl)-3-fluoroallyl)oxy)phenyl)-N-((4-fluorotetrahydro-2H-pyran-4-yl)methyl)bicyclo[2.2.2]octane-1-carboxamide]
≤ 10 | NC/C(=C\F)COc1ccc(C23CCC(C(=O)NCC4(O)CCOCC4)(CC2)CC3)cc1 [Compound 2.35, (E)-4-(4-((2-(aminomethyl)-3-fluoroallyl)oxy)phenyl)-N-((4-hydroxytetrahydro-2H-pyran-4-yl)methyl)bicyclo[2.2.2]octane-1-carboxamide]
≤ 10 | CC1(CNC(=O)C23CCC(c4ccc(OC/C(=C/F)CN)cc4)(CC2)CC3)CCOCC1 [Compound 2.36, (E)-4-(4-((2-(aminomethyl)-3-fluoroallyl)oxy)phenyl)-N-((4-methyltetrahydro-2H-pyran-4-yl)methyl)bicyclo[2.2.2]octane-1-carboxamide]
≤ 10 | NC/C(=C\F)COc1ccc(C23CCC(C(=O)NC4(C5CCOCC5)CC4)(CC2)CC3)cc1 [Compound 2.41, (E)-4-(4-((2-(aminomethyl)-3-fluoroallyl)oxy)phenyl)-N-(1-(tetrahydro-2H-pyran-4-yl)cyclopropyl)bicyclo[2.2.2] octane-1-carboxamide]
